Laboratory results as given in ChEMBL document CHEMBL4411338, “Convenient framework of poly functionalized (E)-2-benzylideno-(Z)-carbazolylideno cyanoacetamides via rearrangements as an efficient antibiofilm inhibitors with SAR study” (Bioorg Med Chem, 2019).
Activity calls are given as the source filed them. No cut-off for these calls is given here.

Assays:
Priestia megaterium = assay: Antibiofilm activity against ofloxacin-resistant Bacillus megaterium assessed as disruption of biofilm at 200 ug/ml after 24 hrs by crystal violet staining based ELISA relative to control; assay type: functional
Bacillus subtilis = assay: Antibiofilm activity against tetracycline-resistant Bacillus subtilis assessed as disruption of biofilm at 200 ug/ml after 24 hrs by crystal violet staining based ELISA relative to control; assay type: functional
Escherichia coli [1] = assay: Antibiofilm activity against carbapenem-resistant Escherichia coli assessed as disruption of biofilm at 200 ug/ml after 24 hrs by crystal violet staining based ELISA relative to control; assay type: functional
Pseudomonas fluorescens = assay: Antibiofilm activity against tetracycline-resistant Pseudomonas fluorescens assessed as disruption of biofilm at 200 ug/ml after 24 hrs by crystal violet staining based ELISA relative to control; assay type: functional
Pseudomonas aeruginosa [2] = assay: Antibiofilm activity against carbenicillin-resistant Pseudomonas aeruginosa assessed as disruption of biofilm at 200 ug/ml after 24 hrs by crystal violet staining based ELISA relative to control; assay type: functional
Klebsiella pneumoniae [3] = assay: Antibiofilm activity against carbapenem-resistant Klebsiella pneumoniae assessed as disruption of biofilm at 200 ug/ml after 24 hrs by crystal violet staining based ELISA relative to control; assay type: functional
Klebsiella pneumoniae [4] = assay: Antibiofilm activity against tetracycline-resistant Klebsiella pneumoniae assessed as disruption of biofilm at 200 ug/ml after 24 hrs by crystal violet staining based ELISA relative to control; assay type: functional
Escherichia coli [5] = assay: Antibiofilm activity against carbenicillin-resistant Escherichia coli assessed as disruption of biofilm at 100 ug/ml after 24 hrs by crystal violet staining based ELISA relative to control; assay type: functional
Klebsiella pneumoniae [6] = assay: Antibiofilm activity against carbenicillin-resistant Klebsiella pneumoniae assessed as disruption of biofilm at 200 ug/ml after 24 hrs by crystal violet staining based ELISA relative to control; assay type: functional
Pseudomonas aeruginosa [7] = assay: Antibiofilm activity against carbenicillin-resistant Pseudomonas aeruginosa assessed as disruption of biofilm at 100 ug/ml after 24 hrs by crystal violet staining based ELISA relative to control; assay type: functional
Escherichia coli [8] = assay: Antibiofilm activity against carbenicillin-resistant Escherichia coli assessed as disruption of biofilm at 10 ug/ml by crystal violet/acridine orange staining based fluorescence microscopic analysis; assay type: functional, organism-based
Pseudomonas aeruginosa [9] = assay: Antibiofilm activity against carbenicillin-resistant Pseudomonas aeruginosa assessed as disruption of biofilm at 10 ug/ml by crystal violet/acridine orange staining based fluorescence microscopic analysis; assay type: functional, organism-based
Klebsiella pneumoniae [10] = assay: Antibiofilm activity against carbenicillin-resistant Klebsiella pneumoniae assessed as disruption of biofilm at 10 ug/ml by crystal violet/acridine orange staining based fluorescence microscopic analysis; assay type: functional, organism-based
Klebsiella pneumoniae [11] = assay: Antibiofilm activity against tetracycline-resistant Klebsiella pneumoniae assessed as disruption of biofilm at 10 ug/ml by crystal violet/acridine orange staining based fluorescence microscopic analysis; assay type: functional, organism-based
Escherichia coli [12] = assay: Reduction in reactive oxygen species level in carbapenem-resistant Escherichia coli biofilm at 10 ug/ml measured after 2 to 6 hrs by DCFH-DA probe based UV-spectrofluorimetric method; assay type: functional, organism-based
Escherichia coli [13] = assay: Antibiofilm activity against carbapenem-resistant Escherichia coli biofilm assessed as reactive oxygen species generation at 10 ug/ml after 1 hr by DCFH-DA probe based UV-spectrofluorimetric method relative to control; assay type: functional
HEK293 [14] = assay: Cytotoxicity against HEK293 cells assessed as reduction in cell viability at >75 ug/ml after 24 hrs by MTT assay; assay type: cell-based; settings: human, hek293, 24 h
HEK293 [15] = assay: Cytotoxicity against HEK293 cells assessed as reduction in cell viability up to 75 ug/ml after 24 hrs by MTT assay; assay type: cell-based; settings: human, hek293, 24 h
Klebsiella pneumoniae [16] = assay: Antibiofilm activity against tetracycline-resistant Klebsiella pneumoniae assessed as disruption of biofilm at 100 ug/ml after 24 hrs by crystal violet staining based ELISA relative to control; assay type: functional

| SMILES | inhibition at 200 µg/mL (Priestia megaterium) [%] | inhibition at 200 µg/mL (Bacillus subtilis) [%] | inhibition at 200 µg/mL (Escherichia coli [1]) [%] | inhibition at 200 µg/mL (Pseudomonas fluorescens) [%] | inhibition at 200 µg/mL (Pseudomonas aeruginosa [2]) [%] | inhibition at 200 µg/mL (Klebsiella pneumoniae [3]) [%] | inhibition at 200 µg/mL (Klebsiella pneumoniae [4]) [%] | inhibition at 100 µg/mL (Escherichia coli [5]) [%] | inhibition at 200 µg/mL (Klebsiella pneumoniae [6]) [%] | inhibition at 100 µg/mL (Pseudomonas aeruginosa [7]) [%] | Activity (Escherichia coli [8]) | Activity (Pseudomonas aeruginosa [9]) | Activity (Klebsiella pneumoniae [10]) | Activity (Klebsiella pneumoniae [11]) | Activity (Escherichia coli [12]) | fold change (FC) (Escherichia coli [13]) | Activity (HEK293 [14]) | Activity (HEK293 [15]) | inhibition at 100 µg/mL (Klebsiella pneumoniae [16]) [%] |
| --- | --- | --- | --- | --- | --- | --- | --- | --- | --- | --- | --- | --- | --- | --- | --- | --- | --- | --- | --- |
| O=C(O)c1cn(C2CC2)c2cc(N3CCNCC3)c(F)cc2c1=O [CIPROFLOXACIN] | 56.3 | 23 | 45 | 38 | 49.7 | 25.5 | 43 | – | – | – | – | – | – | – | – | – | – | – | – |
| COc1ccc(/C=C2\CCc3c([nH]c4ccc(C)cc34)\C2=C(\C#N)C(N)=O)cc1OC | 17.1 | 21 | 80 | 31 | 67 | 78 | 78 | 78 | 82 | – | – | – | – | – | – | – | – | – | – |
| Cc1ccc2[nH]c3c(c2c1)CCC(=C\c1cccc(Br)c1)/C3=C(\C#N)C(N)=O | 6.3 | 10 | 33.5 | 12 | 13.2 | 20.7 | 28.3 | – | – | – | – | – | – | – | – | – | – | – | – |
| Cc1ccc2c3c([nH]c2c1)C(=C(/C#N)C(N)=O)/C(=C/c1ccccc1)CC3 | 13.1 | 45 | 16 | 26.4 | 17 | 14 | 15.6 | – | – | – | – | – | – | – | – | – | – | – | – |
| Cc1ccc2[nH]c3c(c2c1)CCC(=C\c1ccc(F)cc1)/C3=C(\C#N)C(N)=O | 32.4 | 56 | 13.4 | 11 | 19.3 | 17 | 0 | – | – | – | – | – | – | – | – | – | – | – | – |
| Cc1ccc2[nH]c3c(c2c1)CCC(=C\c1ccccc1)/C3=C(\C#N)C(N)=O | 21.4 | 23 | 85 | 31 | 81 | 71 | 71 | 89 | – | 79 | Active | Active | Active | Active | Active | 2 | Toxic | Non-Toxic | – |
| COc1ccc(/C=C2\CCc3c([nH]c4cc(C)ccc34)\C2=C(\C#N)C(N)=O)cc1OC | 10.9 | 32 | 17.2 | 5 | 15.3 | 12 | 18.3 | – | – | – | – | – | – | – | – | – | – | – | – |
| CCOc1ccc(/C=C2\CCc3c([nH]c4ccc(C)cc34)\C2=C(\C#N)C(N)=O)cc1OCC | 11.2 | 8 | 27.4 | 18 | 29.3 | 16 | 23.3 | – | – | – | – | – | – | – | – | – | – | – | – |
| Cc1cccc2c3c([nH]c12)C(=C(/C#N)C(N)=O)/C(=C/c1ccccc1)CC3 | 31.4 | 23 | 14.6 | 0 | 4.3 | 21 | 1.9 | – | – | – | – | – | – | – | – | – | – | – | – |
| Cc1ccc2c3c([nH]c2c1)C(=C(/C#N)C(N)=O)/C(=C/c1cccs1)CC3 | 15.7 | 21 | 9.8 | 28 | 18.9 | 18 | 3.5 | – | – | – | – | – | – | – | – | – | – | – | – |
| Cc1ccc2[nH]c3c(c2c1)CCC(=C\c1cccs1)/C3=C(\C#N)C(N)=O | 4.5 | 28 | 70 | 73 | 29.3 | 74 | 81 | 78 | – | – | – | – | – | – | – | – | – | – | 78 |
| Cc1ccc2[nH]c3c(c2c1)CCC(=C\c1ccccn1)/C3=C(\C#N)C(N)=O | 18.2 | 26 | 21.7 | 29 | 17 | 32 | 0 | – | – | – | – | – | – | – | – | – | – | – | – |
| COc1ccc(/C=C2\CCc3c([nH]c4c(C)cccc34)\C2=C(\C#N)C(N)=O)cc1OC | 6.1 | 31 | 84.6 | 0 | 12.5 | 16 | 23 | – | – | – | – | – | – | – | – | – | – | – | – |
| Cc1ccc2[nH]c3c(c2c1)CCC(=C\c1cccc(F)c1)/C3=C(\C#N)C(N)=O | 21.1 | 10 | 24.8 | 15 | 25.3 | 29 | 0 | – | – | – | – | – | – | – | – | – | – | – | – |
| Cc1cccc2c3c([nH]c12)C(=C(/C#N)C(N)=O)/C(=C/c1cccs1)CC3 | 17.6 | 12 | 22.8 | 0 | 24.1 | 12 | 27.9 | – | – | – | – | – | – | – | – | – | – | – | – |
